Reference: US5330989A, “Heterocycles substituted with biphenyl-3-cyclobutene-1,2-dione derivatives” (American Home Products Corporation, priority 1992, dated 1994)

Tested on: A II-infused rat
Experiment: A II-infused rat model, antihypertensive activity (arterial pressure)
Format: in vivo
Settings: 3 mg/kg id (duodenal cannula); four hours post-administration; mecamylamine ganglion blockade; A II infusion […]
Experimental: In accordance with their ability to antagonize angiotensin II, the compounds of this invention show antihypertensive activity in the following A II-infused rat model. Rats are anesthetized with Dial-Urethane(0.60 mL/kg, ip) and the trachea cannulated with PE 240. Either one femoral artery and both femoral veins or the carotid artery and the corresponding jugular vein are cannulated with PE 50. If the jugular vein is cannulated, two cannulas are placed in the one vein. The initial portion of the duodenum (just distal to the stomach) is cannulated with PE 50 via a small midline incision. Arterial pressure and heart rate are measured from the arterial cannula. Ten to 15 min are allowed following surgery for stabilization of arterial pressure. Ganglion blockage is then produced by intravenous administration of mecamylamine at 3 mg/kg (1 mL/kg of a 3 mg/mL solution). Ganglion blockade causes a fall in arterial pressure of about 50 mmHg. Mecamylamine is given every 90 min throughout the remainder of the experiment. An A II infusion is then begun into the other venous cannula at 0.25 μg/kg/min (at 9.6 μL/min). The A II infusion returns arterial pressure to or slightly above the control level. Once arterial pressure has stabilized with the A II infusion, baseline values for mean arterial pressure (MAP) and heart rate are taken. […]

O=c1c(O)c(-c2ccccc2-c2ccc(CNc3nc(C(F)(F)F)nc4c3CCCC4)cc2)c1=O [Example 1, 3-hydroxy-4-[4'-[[[5,6,7,8-tetrahydro-2-(trifluoromethyl)-4-quinazolinyl]amino]methyl][1,1'-biphenyl]-2-yl]-3-cyclobutene-1,2-dione]
average lowering of the A II dependent blood pressure: 52%
